Experimental data as given in patent publication US4566984A, “Ether polycarboxylates” (The Procter & Gamble Company, priority 1984, dated 1986).
Where a name gives a salt, the structure may show the parent alone.

Test: Calcium Binding Constants Determination (calcium selective electrode titration)
Type: physicochemical
Conditions: for Calcium Ion Binding Constants, Log KCa, pH 7.6 / Calcium Ion Binding Constants, Log KCa, pH 9.5: 35° C., 0.1 M ionic strength
Excerpt: A computer system (Hewlett-Packard) with digital voltmeters was used to collect and analyze data from an Orion calcium selective electrode and a linear syringe buret (Sage Instruments syringe pump plus a linear potentiometer). […] Volumetric accuracy was better than +/- 0.5%.
Three hundred data pairs of [Ca total] vs 10^(E/S), which is a linear measure of [Ca free], were collected and corrected for dilution during each titration. S is the Nernst equation slope, ca. 29 mv/decade, and E is the calcium electrode voltage. Calcium ion was titrated into buffer solution. Here, L represents the sequestering ligand. A ligand-free standard titration calibrated the electrode response. […] A third titration, adding Ca ion to a solution of a fixed [L tot] and fixed [Mg tot] was compared with KCa at different [Ca tot]/[L tot] ratios to reveal KMg at those same ratios. [formula]
This line was extrapolated back to [Ca free]=0 and [Ca tot] at that point represented a measure of calcium binding capacity.

| Calcium Ion Binding Constants, Log KCa, pH 7.6 | Calcium Ion Binding Constants, Log KCa, pH 9.5 | SMILES | calcium binding relative to sodium tripolyphosphate and sodium nitrilotriacetate | calcium binding relative to two prior art ether carboxylates and sodium citrate |
| --- | --- | --- | --- | --- |
| 3.1 | 4.9 | O=P(O)(O)OP(=O)(O)OP(=O)(O)O [Sodium tripolyphosphate, reference compound] |  |  |
| 5.3 | 5.5 | O=C(O)COC(CC(=O)O)(C(=O)O)C(=O)O [Compound 5, 3,3-dicarboxy-4-oxa-1,6 hexanedioic acid, tetrasodium salt] | at least equivalent | clear advantage in calcium binding |

More lines, now with the values behind:

| SMILES | Calcium Ion Binding Constants, Log KCa, pH 7.6 | Calcium Ion Binding Constants, Log KCa, pH 9.5 | calcium binding relative to sodium tripolyphosphate and sodium nitrilotriacetate | calcium binding relative to two prior art ether carboxylates and sodium citrate |
| --- | --- | --- | --- | --- |
| O=C([O-])CN(CC(=O)[O-])CC(=O)[O-].[Na+].[Na+].[Na+] [Nitrilotriacetic acid, sodium salt, reference compound] | 3.3 | 5.5 |  |  |
| O=C(O)COC(CC(=O)O)C(=O)O (stereo not drawn) [2-oxa-1,3,4 butanetricarboxylic acid, sodium salt, reference compound] |  | 4.4 |  |  |
| O=C([O-])C1CCC(C(=O)[O-])C(C(=O)[O-])(C(=O)[O-])O1.[Na+].[Na+].[Na+].[Na+] (stereo not drawn) [Compound 7, Oxacyclohexane-2,2,3,6-tetracarboxylic acid, tetrasodium salt] |  | 6.2 | at least equivalent | clear advantage in calcium binding |
